Here are results for seven compounds from PMC5068967, “Nucleophile sensitivity of Drosophila TRPA1 underlies light-induced feeding deterrence” (eLife, 2016).

The test system of test [1] is bitter-sensing neurons in i-bristles. The experiment in a line: Extracellular single sensillum recording from labellum i-bristles. It counts as in vivo, Drosophila melanogaster. To be noted: for effect of pre-application on UV-evoked action potentials: i-a bristles, applied via the recording electrode, concentrations below those eliciting fast activation. The protocol: In vivo taste cell recordings were performed as detailed previously ([Kang et al., 2012]). Briefly, bristles were identified based on the previously described sensillum map of the labellum ([Weiss et al., 2011]; [Tanimura et al., 2009]). […] Tricholine citrate (TCC) at 30 mM was used as an electrolyte in the glass recording electrodes. Chemicals were solubilized in the electrolyte solution, and then applied to taste neurons. Spiking frequencies to chemicals were calculated for entire recordings except for H2O2 recording in L bristles, for which spiking frequencies were calcuclated from the first 10 s. […] For the first 20 s of UV response recordings, the basal activity of neurons in the bristle was monitored, after which time UV illumination was administered to the sensilla for 20 s using optical fiber-coupled UV LEDs (FCS-0295–000, Mightex, CA, and UVTOP295, Qphotonics, MI, USA for UVB at 295 nm and M365FP1, Thorlabs, USA for UVA at 365 nm) controlled by an SLA-series two-channel LED driver (SLA-0100–2, Mightex) and a T-Cube LED driver (LEDD1B, Thorlab, USA), respectively. The maximal optical fiber output of 295 nm UV was 0.063 mWusing a ball-lens type LED and that of 365 nm UV was 0.3 mW. These net power outputs at the tip of the optical fiber were measured with a photodiode sensor (S120VC, Thorlabs, NJ, USA) connected to a digital console (PM100D, Thorlabs, NJ, USA). Illumination intensity was calculated by considering the size of illuminated area derived from the numerical aperture (NA) values of the optical fibers and the distance to the samples. Due to the complex shape of fly taste bristles on the labellum and various illumination angles between the light beam and tissue, we simplified the calculation by postulating a 45° angle and oval illumination area at a distance (Figure 1—figure supplement 1d). For oocytes, circular areas were calculated (Figure 1—figure supplement 1e). Blue and green light illumination was accomplished using a GFP or RFP excitation filter (470 or 540 nm with a bandpath of 50, respectively) equipped with a typical fluorescence microscope. The UV filter for experiments with white light consisted of glass deposited with nanolayers of titanium dioxide (custom-made, Seoul Precision Optics, Seoul, Korea). Flies prepared for sensillum recording in response to light were used once to record from a single bristle, in order to test only naïve cells. The reference electrode containing hemolymph-like solution 3.1 (HL3.1) ([Feng et al., 2009]) was inserted close to the labella taste neuron cell bodies from the back of the fly thorax, which held the proboscis in an extended configuration in order to minimize electrical noise stemming from movement of the live animal. Tasteprobe (Syntech, Netherlands) was used as a preamplifier to register the action potentials from the neurons, which were digitized with Powerlab (ADI instruments, Australia). The obtained spiking frequencies were analyzed by Labchart (ADI instruments, Australia). Non-responding bristles were re-tested with other agonists that activate the same neurons as indicated in the main text (Figure 1—figure supplement 2 and Figure 3—figure supplement 1).

The test system of a further test is TRPA1(A)R113A/R116A. The experiment in a line: Two-electrode voltage clamp of Xenopus oocytes expressing TRPA1(A)R113A/R116A. It counts as cell-based, Drosophila melanogaster. The procedure: (§1) TRPA1-dependent currents in Xenopus laevis oocytes induced by application of chemicals and light illumination were recorded by the two-electrode voltage clamping technique (TEVC), as described previously ([Kang et al., 2010]; [Kang et al., 2012]). Briefly, ovaries were surgically prepared and subjected to digestion with 1.5 mg/ml collagenase for 1.5 hr. Subsequently, the follicular layer of the oocytes was manually removed. One day after microinjection of 50 nl of TrpA1 cRNA, oocytes were electrophysiologically examined while perfused with the recording solution (96 mM NaCl, 1 mM KCl, 1 mM MgCl2, 5 mM HEPES, pH 7.6). For UV illumination, the optical fiber terminal was mounted above the cell at a minimal distance to achieve the highest possible intensity (Figure 1—figure supplement 1c). […] For UV experiments, the initial voltage was −60 mV, and it was then changed in periods of 300 ms from −60 to +60 mV per second. […] The current was amplified with a GeneClamp 500B amplifier (Molecular Devices, CA, USA) and registered by a digitizer (Digidata 1440 A, Molecular Devices, CA, USA). Data from dose-dependence experiments were normalized with respect to 0.1 mM NMM currents recorded from the same cells, and fitted to the Hill equation using Sigmaplot12.
(In general: Two-electrode voltage clamp holds a large cell at a set potential and records current.)

A further test addresses agTRPA1(A) (Anopheles gambiae, UniProt B3G3I7). Nature of the test: Two-electrode voltage clamp of Xenopus oocytes expressing agTRPA1(A). The class given is cell-based. The following applies: for isoform preference of activation: −60 mV, agTRPA1(A) versus agTRPA1(B). The protocol:
as §1

The next test concerns TRPA1(A)C105A. Nature of the test: Two-electrode voltage clamp of Xenopus oocytes expressing TRPA1(A)C105A. It counts as cell-based, Drosophila melanogaster. The protocol: as §1
Another test concerns the target T1, human TRPA1 (humTRPA1) (Homo sapiens, UniProt O75762).
T1 construct: expressed in transfected cells; host or cells: Xenopus laevis oocytes injected with TrpA1 cRNA
The experiment in a line: Two-electrode voltage clamp of Xenopus oocytes expressing human TRPA1. The class given is cell-based. The protocol: as §1

The next test deals with T2, Drosophila TRPA1(B) (Drosophila melanogaster, UniProt Q7Z020).
T2 construct: expressed in transfected cells; host or cells: Xenopus laevis oocytes injected with TrpA1 cRNA
T2 sequence (Q7Z020 1-1197): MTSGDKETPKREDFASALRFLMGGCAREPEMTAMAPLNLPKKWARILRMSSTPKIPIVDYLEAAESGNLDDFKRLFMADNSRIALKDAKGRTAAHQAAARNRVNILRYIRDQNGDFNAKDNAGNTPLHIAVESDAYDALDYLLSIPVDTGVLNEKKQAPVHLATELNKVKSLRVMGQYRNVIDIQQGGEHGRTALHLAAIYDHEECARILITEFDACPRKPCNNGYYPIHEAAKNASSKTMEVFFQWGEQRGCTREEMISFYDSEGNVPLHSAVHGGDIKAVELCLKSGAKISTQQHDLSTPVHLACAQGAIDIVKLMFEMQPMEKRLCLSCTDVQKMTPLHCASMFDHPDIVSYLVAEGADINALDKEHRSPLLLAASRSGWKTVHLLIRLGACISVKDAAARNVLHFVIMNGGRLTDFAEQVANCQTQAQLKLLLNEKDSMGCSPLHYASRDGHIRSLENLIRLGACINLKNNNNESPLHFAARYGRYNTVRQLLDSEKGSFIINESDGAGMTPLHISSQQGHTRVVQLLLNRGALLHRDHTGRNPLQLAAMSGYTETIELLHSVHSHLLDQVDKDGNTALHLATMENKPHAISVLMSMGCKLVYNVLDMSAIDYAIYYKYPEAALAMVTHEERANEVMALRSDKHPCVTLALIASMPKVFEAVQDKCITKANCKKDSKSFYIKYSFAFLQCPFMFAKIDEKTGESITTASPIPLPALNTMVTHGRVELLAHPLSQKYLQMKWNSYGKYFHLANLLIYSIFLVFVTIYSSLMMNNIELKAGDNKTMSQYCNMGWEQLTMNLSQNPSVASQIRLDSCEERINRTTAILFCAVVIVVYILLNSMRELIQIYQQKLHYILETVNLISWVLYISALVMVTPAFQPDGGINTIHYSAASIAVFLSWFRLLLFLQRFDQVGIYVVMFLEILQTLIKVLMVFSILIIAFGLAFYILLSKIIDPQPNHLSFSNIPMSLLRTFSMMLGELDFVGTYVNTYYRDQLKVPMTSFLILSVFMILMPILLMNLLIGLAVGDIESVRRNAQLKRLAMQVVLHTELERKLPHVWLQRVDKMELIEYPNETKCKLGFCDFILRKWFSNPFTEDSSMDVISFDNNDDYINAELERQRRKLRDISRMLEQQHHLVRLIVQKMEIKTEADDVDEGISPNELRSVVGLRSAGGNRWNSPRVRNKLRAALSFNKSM
The experiment in a line: Two-electrode voltage clamp of Xenopus oocytes expressing Drosophila TRPA1(B). It counts as cell-based. The procedure: as §1

For another test, the system named is agTRPA1(B). The experiment in a line: Two-electrode voltage clamp of Xenopus oocytes expressing agTRPA1(B). It counts as cell-based, Anopheles gambiae. To be noted: 0.1 mM APS. The protocol: as §1
For the next test, the system named is Drosophila (WT: wcs). Nature of the test: Capillary feeder (Café) assay, feeding avoidance. The class given is in vivo, Drosophila melanogaster. Also noted: dose or concentration left out as unconfirmed. The following applies: WT flies. The protocol: To quantitatively evaluate the impact of UV irradiation and chemicals on feeding deterrence, the capillary feeder (Café) assay ([Ja et al., 2007]) was used with minor modifications. In particular, feeding avoidance upon UV illumination was determined using two sibling populations of 16 hr starved flies. […] Irradiance was measured as ~1.8, 4, and 57.1 mW/cm^2for UVA, UVB, and white light, respectively, using an excised piece of a vial covering the photodiode probe (S120VC, Thorlabs, NJ, USA) to simulate internal irradiation. The vials were made of polypropylene, which has a low rate of UV transmission ([Kruenate et al., 2004]), resulting in increased internal temperature, as described in Figure 1—figure supplement 3. To minimize thermal accumulation, the UV-illuminated vial was actively cooled by fan-driven air flow while the internal temperature of a separately illuminated vial was concurrently monitored. After each feeding session, the change in the level of the menisci of 30 mM sucrose solutions in three calibrated glass capillary tubes (#2920107, Marienfeld, Lauda-Königshofen, Germany, 15 mm/μl) was measured. Following measurement of the evaporated volume obtained from vials without flies, the distance readings were converted to volume measurements. […]

In a further test the test system is mouse TRPA1. The following applies: extracellular Ca2+ required; ref Andersson et al., 2008; cited from earlier work.
Another test addresses T3, Drosophila TRPA1(A) (Drosophila melanogaster, UniProt Q7Z020).
T3 sequence (Q7Z020 1-1197): T2 sequence (Q7Z020 1-1197)
The experiment in a line: Two-electrode voltage clamp of Xenopus oocytes expressing Drosophila TRPA1(A). It counts as cell-based. The procedure: as §1

agTRPA1(A), sequence (B3G3I7 entry or part of it): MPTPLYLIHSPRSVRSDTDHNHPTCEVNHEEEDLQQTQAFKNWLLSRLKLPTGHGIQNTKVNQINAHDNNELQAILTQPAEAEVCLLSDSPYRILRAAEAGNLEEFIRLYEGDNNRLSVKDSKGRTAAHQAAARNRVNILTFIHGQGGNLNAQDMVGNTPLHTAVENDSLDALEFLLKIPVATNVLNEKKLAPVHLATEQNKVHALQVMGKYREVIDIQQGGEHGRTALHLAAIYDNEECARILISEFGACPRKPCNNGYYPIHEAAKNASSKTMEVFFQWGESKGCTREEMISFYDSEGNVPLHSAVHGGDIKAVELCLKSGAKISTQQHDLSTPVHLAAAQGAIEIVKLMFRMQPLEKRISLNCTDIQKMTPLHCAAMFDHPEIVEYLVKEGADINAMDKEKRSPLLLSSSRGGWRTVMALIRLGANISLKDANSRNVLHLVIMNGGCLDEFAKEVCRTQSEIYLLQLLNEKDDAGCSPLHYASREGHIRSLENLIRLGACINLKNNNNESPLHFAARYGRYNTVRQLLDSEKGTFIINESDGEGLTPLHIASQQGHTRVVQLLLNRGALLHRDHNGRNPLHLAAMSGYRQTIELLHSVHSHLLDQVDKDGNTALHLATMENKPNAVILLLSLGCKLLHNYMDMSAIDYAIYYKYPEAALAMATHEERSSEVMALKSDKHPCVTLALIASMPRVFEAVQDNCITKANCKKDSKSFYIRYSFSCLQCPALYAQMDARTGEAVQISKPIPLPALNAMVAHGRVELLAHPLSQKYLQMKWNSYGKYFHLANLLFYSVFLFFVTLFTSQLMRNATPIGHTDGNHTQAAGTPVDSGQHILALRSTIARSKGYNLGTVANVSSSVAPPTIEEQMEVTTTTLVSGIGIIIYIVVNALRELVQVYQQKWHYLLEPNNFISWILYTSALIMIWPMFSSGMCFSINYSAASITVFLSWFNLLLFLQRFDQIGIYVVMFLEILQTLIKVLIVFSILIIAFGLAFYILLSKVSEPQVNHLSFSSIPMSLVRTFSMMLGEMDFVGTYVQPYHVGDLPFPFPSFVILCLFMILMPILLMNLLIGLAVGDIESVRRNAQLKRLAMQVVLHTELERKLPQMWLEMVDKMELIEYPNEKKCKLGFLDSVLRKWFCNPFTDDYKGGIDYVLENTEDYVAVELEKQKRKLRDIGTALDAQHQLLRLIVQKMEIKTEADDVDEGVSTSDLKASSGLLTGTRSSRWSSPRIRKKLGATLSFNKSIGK
T1 sequence (O75762 whole entry): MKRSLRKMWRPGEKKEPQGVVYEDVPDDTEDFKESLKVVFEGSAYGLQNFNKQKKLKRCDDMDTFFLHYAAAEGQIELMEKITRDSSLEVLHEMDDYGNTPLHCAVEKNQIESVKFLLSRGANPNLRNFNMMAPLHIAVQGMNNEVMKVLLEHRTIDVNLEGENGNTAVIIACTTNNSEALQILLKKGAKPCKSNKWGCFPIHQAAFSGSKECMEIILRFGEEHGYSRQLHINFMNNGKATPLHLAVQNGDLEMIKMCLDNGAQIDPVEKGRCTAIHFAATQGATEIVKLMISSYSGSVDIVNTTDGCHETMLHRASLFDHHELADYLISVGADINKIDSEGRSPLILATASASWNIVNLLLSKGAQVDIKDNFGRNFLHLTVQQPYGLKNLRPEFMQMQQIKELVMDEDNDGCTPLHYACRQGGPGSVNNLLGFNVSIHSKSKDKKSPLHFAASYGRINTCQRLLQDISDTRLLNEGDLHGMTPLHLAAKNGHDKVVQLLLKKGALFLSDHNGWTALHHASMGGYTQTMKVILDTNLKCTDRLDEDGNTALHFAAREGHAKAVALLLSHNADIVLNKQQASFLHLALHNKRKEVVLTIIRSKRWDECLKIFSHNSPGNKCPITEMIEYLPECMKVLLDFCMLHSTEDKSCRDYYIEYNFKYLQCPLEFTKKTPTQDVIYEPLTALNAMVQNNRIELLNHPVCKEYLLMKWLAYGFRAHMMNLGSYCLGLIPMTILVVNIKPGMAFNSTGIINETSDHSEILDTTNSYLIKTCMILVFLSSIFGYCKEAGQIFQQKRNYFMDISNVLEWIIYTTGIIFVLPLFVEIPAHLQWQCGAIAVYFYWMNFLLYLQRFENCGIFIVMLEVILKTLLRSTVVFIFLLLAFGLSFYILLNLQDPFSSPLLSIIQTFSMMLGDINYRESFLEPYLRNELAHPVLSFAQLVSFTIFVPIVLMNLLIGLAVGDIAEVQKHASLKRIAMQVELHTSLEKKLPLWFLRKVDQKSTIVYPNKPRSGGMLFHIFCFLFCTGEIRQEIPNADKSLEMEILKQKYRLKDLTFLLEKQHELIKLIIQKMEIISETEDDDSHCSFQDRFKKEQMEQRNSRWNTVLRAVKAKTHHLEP

`O[C@@H](CS)[C@@H](O)CS` (racemic) [DTT, dithiothreitol]: the “effect of pre-application on UV-evoked action potentials” value (“effect of pre-application” for short) in test [1] is on record as “lowered the frequencies of UV-evoked action potentials”. Also, the “DTT responsiveness” value in the test on TRPA1(A)R113A/R116A and in the test with TRPA1(A)C105A was “indistinguishable from that of TRPA1(B)” in each case. Moreover, the EC50 – broadly, the concentration giving half of the maximal effect – on agTRPA1(A) was ~3.8 µM. Further, the “DTT current response” value at human TRPA1 (humTRPA1) is “seldom showed electrophysiological responses to DTT”; on Drosophila TRPA1(B) (Xenopus oocytes) it was “little compared to that of TRPA1(A)”.
On to `N.N.O=S(=O)(O)OOS(=O)(=O)O` [APS, ammonium persulfate], for which the “channel activation” value in the test with agTRPA1(B) is given as “not agTRPA1(B)”; at agTRPA1(A) (0.1 mM APS, mixture 0.01 mM TEMED and 0.1 mM APS, from 30 min after mixing) it was “activated agTPRA1(A)”.
As for `S=C=NCc1ccccc1` [BITC, benzyl isothiocyanate], the “effect of pre-application” value in test [1] was “lowered the frequencies of UV-evoked action potentials”.
As to `N#CSCc1ccccc1` [BTC, benzyl thiocyanate], in test [1], the “effect of pre-application” value was “lowered the frequencies of UV-evoked action potentials”. Moreover, the “isoform preference of activation” value at agTRPA1(A) (Xenopus oocytes) is on record as “preferentially activated agTRPA1(A) over agTRPA1(B)”.
For the compound `OO` [H2O2, hydrogen peroxide], the “spiking response of bitter-sensing neurons” value in test [1] (100 mM H2O2, required the TrpA1 gene) is “robust spiking response”. In addition, the “feeding avoidance” value in the test on Drosophila (WT: wcs) is on record as “increasingly avoided ingestion of H2O2-containing food”. The “H2O2 current response” value in the test with TRPA1(A)R113A/R116A, with TRPA1(A)C105A and at human TRPA1 (humTRPA1) was “remarkably reduced responses to H2O2” throughout. The EC50 in the test with mouse TRPA1 was ~230 µM; on agTRPA1(A) it was 1.7 ± 0.3 µM; on Drosophila TRPA1(A), 5 ± 0.8 µM; at Drosophila TRPA1(B), 900 ± 200 µM. Moreover, the “NMM-normalized peak current amplitude relative to Drosophila TRPA1(A)” value on agTRPA1(A) (Xenopus oocytes) is on record as ~ 5 times. In addition, the “lowest concentration that readily activates the channel” value at Drosophila TRPA1(A) (Xenopus oocytes, 'as low as') is 100 nM. For the same compound, the Emax at Drosophila TRPA1(A) (read-out: average maximal current amplitude relative to NMM responses) is ~30%.
Regarding `CN1C(=O)C=CC1=O` [NMM, N-methyl maleimide], in test [1], the “effect of pre-application” value is listed as “lowered the frequencies of UV-evoked action potentials”. In the test on Drosophila (WT: wcs), the “feeding avoidance” value is recorded as “showed NMM-dependent feeding avoidance”. The “effect on the stimulatory effect of APS/TEMED co-incubation” value on agTRPA1(A) (NMM at 0.01 mM) is “abolished”. Also, the “reversal potential of evoked current” value at Drosophila TRPA1(A) (Xenopus oocytes, n = 7) was −5.4 ± 1.0 mV. For the same compound, at Drosophila TRPA1(A) (net response, Xenopus oocytes, n = 4), the “rectification: ratio of conductance at +60 mV to that at −60 mV” value is 1.7 ± 0.3.
For the compound `c1c[nH]cn1` [imidazole], the “isoform preference of activation” value on agTRPA1(A) (Xenopus oocytes) is given as “preferentially activated agTRPA1(A) over agTRPA1(B)”.
